Test results: patent US12385839B2, “Use of protein in predicting drug properties” (priority 2021, dated 2025)
“And” between values parts separate entries of the source, which are not always exact repeats. Equal entries are not always repeated. Where two headings read alike, the source gives them in different places.

Columns and labels:
[1] = cited from earlier work; for LD50: modelling table; for Toxicity: toxicity grade by LD50, trailing figure = number of pesticides in group
[2] = target: T1, human serum albumin (HSA) (Homo sapiens, UniProt P02768); assay: Fluorescence emission spectrum (quenching) of HSA with carbamate pesticides; assay type: binding; conditions: for Kq / Ksv / n (number of binding sites) / Kd / Ka (binding constant): pH 7.4; for R (binding distance): Förster energy transfer; for fluorescence of HSA quenched by pesticide: titration of pesticide; for ΔH^0 / ΔS^0: Van't Hoff, 296-310 K
Method in brief: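 Fluorescence quenching of HSA by carbamate pesticides was measured. HSA was held at 5×10^−7 M and pesticide was titrated from (0-105)×10^−7 M. Samples were preheated for 3 minutes, excited at 280 nm with 15 nm slits, and emission was recorded from 300-500 nm. Inner-filter effects were corrected. Binding site number n came from log[(F0−F)/F]=log Ka+nlog[Q].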

[3] = target: T1, human serum albumin (HSA); assay: Circular dichroism spectrum, secondary structure (α-helix content) of HSA; conditions: HSA 2×10^−6 M
Method in brief: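 CD spectra of HSA held at 2×10^−6 M with pesticide at (0-20)×10^−6 M, 1 mm path, after 2–5 min preheating. α-Helix content derived from mean residue ellipticity at 208 nm (585 residues).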

T1 sequence (P02768 25-609): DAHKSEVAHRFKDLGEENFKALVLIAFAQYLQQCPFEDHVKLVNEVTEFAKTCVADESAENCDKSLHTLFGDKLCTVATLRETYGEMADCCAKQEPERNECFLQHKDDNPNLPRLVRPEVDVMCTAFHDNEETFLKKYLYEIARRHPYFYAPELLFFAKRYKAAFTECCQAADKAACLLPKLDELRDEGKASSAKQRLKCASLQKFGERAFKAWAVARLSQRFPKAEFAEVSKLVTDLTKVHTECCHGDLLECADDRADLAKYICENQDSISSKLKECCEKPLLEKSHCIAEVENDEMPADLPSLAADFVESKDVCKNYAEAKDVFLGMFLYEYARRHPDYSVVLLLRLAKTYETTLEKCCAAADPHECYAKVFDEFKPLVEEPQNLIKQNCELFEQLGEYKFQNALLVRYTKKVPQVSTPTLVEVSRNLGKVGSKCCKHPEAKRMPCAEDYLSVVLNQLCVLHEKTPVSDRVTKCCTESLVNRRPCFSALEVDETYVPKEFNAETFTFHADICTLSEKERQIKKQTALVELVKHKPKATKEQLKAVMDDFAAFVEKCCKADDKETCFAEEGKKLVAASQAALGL

Row | Compound | Toxicity [1] | Ksv (37°) ([2]; 37°, modelling table) | ΔG^0 ([2]; 296 K) | Kq ([2]; 296 K) | Ksv ([2]; 296 K) | n (number of binding sites) ([2]; 296 K) | ΔG^0 ([2]; 303 K) | Kq ([2]; 303 K) | Ksv ([2]; 303 K) | n (number of binding sites) ([2]; 303 K) | ΔG^0 ([2]; 310 K) | R (binding distance) ([2]; 310 K) | Kq ([2]; 310 K) | Ksv ([2]; 310 K) | n (number of binding sites) ([2]; 310 K) | fluorescence of HSA quenched by pesticide ([2]; 310 K) | ΔH^0 [2] | ΔS^0 [2] | Number of binding sites/n ([2]; modelling table) | α-helix contents ([3]; 5:1 (Pesticide:HSA)) | further results
1 | CNC(=O)Oc1ccccc1OC(C)C [Propoxur, propoxur] | Highly | 50525.98687 | -4.1912 kcal/mol | 3.425 ± 0.132 10^12 M^−1s^−1 | 3.425 ± 0.132 10^4 M^−1 | 0.706 ± 0.014 | -4.5607 kcal/mol | 4.353 ± 0.121 10^12 M^−1s^−1 | 4.353 ± 0.121 10^4 M^−1 | 0.729 ± 0.013 | -4.93 kcal/mol | 3.138 nm | 5.053 ± 0.120 10^12 M^−1s^−1 | 5.053 ± 0.120 10^4 M^−1 | 0.757 ± 0.011 | quenched | 11.43 kcal/mol | 220.816 J · mol^−1 · K^−1 | 0.7565 | 50.121% | LD50 [1]: 41 mg/kg; ΔG(37°) ([2]; 37°, modelling table): −20.63; Kd ([2]; Ka (binding constant), 296 K): 794 µM; Kd ([2]; Ka (binding constant), 303 K): 527 µM; Kd ([2]; Ka (binding constant), 310 K): 330 µM; Binding distance/r ([2]; modelling table): 3.138; α-helix contents ([3]; 10:1 (Pesticide:HSA)): 49.341%
2 | CNC(=O)ON=C(CSC)C(C)(C)C [Thiofanox, thiofanox] | Highly | 58762.03726 | -4.2899 kcal/mol | 3.871 ± 0.035 10^12 M^−1s^−1 | 3.871 ± 0.035 10^4 M^−1 | 0.714 ± 0.014 | -4.5667 kcal/mol | 4.728 ± 0.064 10^12 M^−1s^−1 | 4.728 ± 0.064 10^4 M^−1 | 0.725 ± 0.005 | -4.8435 kcal/mol | 1.883 nm | 5.876 ± 0.198 10^12 M^−1s^−1 | 5.876 ± 0.198 10^4 M^−1 | 0.730 ± 0.003 | quenched | 7.4152 kcal/mol | 165.452 J · mol^−1 · K^−1 | 0.7299 | 48.904% | LD50 [1]: 8.5 mg/kg; ΔG(37°) ([2]; 37°, modelling table): −20.27; Kd ([2]; Ka (binding constant), 296 K): 688 µM; Kd ([2]; Ka (binding constant), 303 K): 496 µM; Kd ([2]; Ka (binding constant), 310 K): 390 µM; Binding distance/r ([2]; modelling table): 1.883; α-helix contents ([3]; 10:1 (Pesticide:HSA)): 48.180%
3 | CNC(=O)O/N=C(\CS(C)(=O)=O)C(C)(C)C [Thiofanox-sulfone, thiofanox sulfone] | Highly | 55736.87796 and 53392.17364 | -4.3031 kcal/mol | 3.906 ± 0.043 10^12 M^−1s^−1 | 3.906 ± 0.043 10^4 M^−1 | 0.719 ± 0.011 | -4.9596 kcal/mol | 4.102 ± 0.034 10^12 M^−1s^−1 | 4.102 ± 0.034 10^4 M^−1 | 0.786 ± 0.008 | -5.6159 kcal/mol | 2.907 nm | 5.574 ± 0.138 10^12 M^−1s^−1 | 5.574 ± 0.138 10^4 M^−1 | 0.848 ± 0.004 | quenched | 23.451 kcal/mol | 392.314 J · mol^−1 · K^−1 | 0.8476 and 0.7456 | 51.076% | Ka (binding constant) ([2]; 296 K): (1.559 ± 0.162) × 10^3 M^−1; Ka (binding constant) ([2]; 303 K): (3.514 ± 0.247) × 10^3 M^−1; Ka (binding constant) ([2]; 310 K): (9.450 ± 0.597) × 10^3 M^−1; α-helix contents ([3]; 10:1 (Pesticide:HSA)): 50.482%
4 | CNC(=O)Oc1cc(C)cc(C)c1 [XMC, 3,5-xylyl methylcarbamate] | Moderately | 48304.67460 | -4.4097 kcal/mol | 4.145 ± 0.187 10^12 M^−1s^−1 | 4.145 ± 0.187 10^4 M^−1 | 0.734 ± 0.005 | -4.9309 kcal/mol | 4.362 ± 0.151 10^12 M^−1s^−1 | 4.362 ± 0.151 10^4 M^−1 | 0.779 ± 0.012 | -5.4522 kcal/mol | 2.033 nm | 4.830 ± 0.108 10^12 M^−1s^−1 | 4.830 ± 0.108 10^4 M^−1 | 0.832 ± 0.006 | quenched | 17.634 kcal/mol | 311.582 J · mol^−1 · K^−1 | 0.8317 | 55.392% | LD50 [1]: 245 mg/kg; ΔG(37°) ([2]; 37°, modelling table): −22.81; Kd ([2]; 296 K, read-out: Ka (binding constant)): 539 µM; Kd ([2]; 303 K, read-out: Ka (binding constant)): 294 µM; Kd ([2]; 310 K, read-out: Ka (binding constant)): 139 µM; Binding distance/r ([2]; modelling table): 2.033; α-helix contents ([3]; 10:1 (Pesticide:HSA)): 54.416%
5 | Trimethacarb | Moderately | 47778.50539 | -4.0289 kcal/mol | 3.043 ± 0.160 10^12 M^−1s^−1 | 3.043 ± 0.160 10^4 M^−1 | 0.694 ± 0.002 | -4.3162 kcal/mol | 4.204 ± 0.100 10^12 M^−1s^−1 | 4.204 ± 0.100 10^4 M^−1 | 0.696 ± 0.005 | -4.6037 kcal/mol | 2.954 nm | 4.778 ± 0.093 10^12 M^−1s^−1 | 4.778 ± 0.093 10^4 M^−1 | 0.713 ± 0.001 | quenched | 8.1233 kcal/mol | 171.775 J · mol^−1 · K^−1 | 0.713 | 52.233% | LD50 [1]: 178 mg/kg; Ka (37°) ([2]; 37°, modelling table): 1782; ΔG(37°) ([2]; 37°, modelling table): −19.26; Ka (binding constant) ([2]; 296 K): (9.546 ± 0.118) × 10^2 M^−1; Ka (binding constant) ([2]; 303 K): (1.268 ± 0.092) × 10^3 M^−1; Ka (binding constant) ([2]; 310 K): (1.782 ± 0.036) × 10^3 M^−1; Binding distance/r ([2]; modelling table): 2.954; α-helix contents ([3]; 10:1 (Pesticide:HSA)): 48.283%
